According to US20090221829A1 (priority 2005, published 2009):

System: Candida albicans(KCTC 1940), Aspergillus niger (ATCC 9642) and Saccharomyces cerevisiae
Test: Relative antifungal activity by agar dilution method (vs Miconazole);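 further: scores 5 to 7 mean a lower fungicidal concentration than Miconazole so higher is more potent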
Type: cell-based
Conditions: agar dilution method; fungicidal concentration relative to control drug Miconazole (=4)
Excerpt: Novel compounds represented by the above chemical formula (I), and the relative activities in accordance with the agar dilution method in Sabouraud dextrose agar media, Czapek agar media and Yeast Extract-Peptone-Dextrose agar media for Candida albicans(KCTC 1940), Aspergillus niger (ATCC 9642) and Saccharomyces cerevisiae are described respectively in following Table 1.

Structure (SMILES) | Relative Activity
CCCCCC1=[N+](Cc2ccc(F)c(F)c2)CCc2cc(OC)c(OC)cc21.[Cl-] [Compound No. 41, 1-n-pentyl-2-(3,4-difluorophenyl)methyl-3,4-dihydro-6,7-dimethoxyisoquinolinium chloride] | 6
CCCCCCC1=[N+](Cc2ccc(F)c(F)c2)CCc2cc(OC)c(OC)cc21.[Cl-] [Compound No. 42, 1-n-hexyl-2-(3,4-difluorophenyl)methyl-3,4-dihydro-6,7-dimethoxyisoquinolinium chloride] | 4
CCCCCCCC1=[N+](Cc2ccc(F)c(F)c2)CCc2cc(OC)c(OC)cc21.[Cl-] [Compound No. 43, 1-n-heptyl-2-(3,4-difluorophenyl)methyl-3,4-dihydro-6,7-dimethoxyisoquinolinium chloride] | 3
CCCCCCCCCCCC1=[N+](Cc2ccc(F)c(F)c2)CCc2cc(OC)c(OC)cc21.[Cl-] [Compound No. 44, 1-n-undecyl-2-(3,4-difluorophenyl)methyl-3,4-dihydro-6,7-dimethoxyisoquinolinium chloride] | 1
CCCCCCC1=[N+](Cc2ccc(C(F)(F)F)cc2)CCc2cc(OC)c(OC)cc21.[Cl-] [Compound No. 45, 1-n-hexyl-2-(4-trifluoromethylphenyl)methyl-3,4-dihydro-6,7-dimethoxyisoquinolinium chloride] | 4
CCCCCCCCCCCCCCCC1=[N+](Cc2ccc(F)c(F)c2)CCc2cc(OC)c(OC)cc21.[Cl-] [Compound No. 46, 1-n-pentadecyl-2-(3,4-difluorophenyl)methyl-3,4-dihydro-6,7-dimethoxyisoquinolinium chloride] | 1
COc1cc2c(cc1OC)C(c1ccccc1F)=[N+](Cc1ccc(F)c(F)c1)CC2.[Cl-] [Compound No. 47, 1-(2-fluorophenyl)-2-(3,4-difluorophenyl)methyl-3,4-dihydro-6,7-dimethoxyisoquinolinium chloride] | 6
COc1cc2c(cc1OC)C(C)=[N+](Cc1ccccc1Cl)CC2.[Cl-] [Compound No. 49, 1-methyl-2-(2-chlorophenyl)methyl-3,4-dihydro-6,7-dimethoxyisoquinolinium chloride] | 6
CCCCCC1=[N+](Cc2ccccc2Cl)CCc2cc(OC)c(OC)cc21.[Cl-] [Compound No. 50, 1-n-pentyl-2-(2-chlorophenyl)methyl-3,4-dihydro-6,7-dimethoxyisoquinolinium chloride] | 6
CCCCCCC1=[N+](Cc2ccccc2Cl)CCc2cc(OC)c(OC)cc21.[Cl-] [Compound No. 51, 1-n-hexyl-2-(2-chlorophenyl)methyl-3,4-dihydro-6,7-dimethoxyisoquinolinium chloride] | 4
CCCCCCCC1=[N+](Cc2ccccc2Cl)CCc2cc(OC)c(OC)cc21.[Cl-] [Compound No. 52, 1-n-heptyl-2-(2-chlorophenyl)methyl-3,4-dihydro-6,7-dimethoxyisoquinolinium chloride] | 3
CCCCCCCCCCCC1=[N+](Cc2ccccc2Cl)CCc2cc(OC)c(OC)cc21.[Cl-] [Compound No. 53, 1-n-undecyl-2-(2-chlorophenyl)methyl-3,4-dihydro-6,7-dimethoxyisoquinolinium chloride] | 2
CCCCCCCCCCCCCCCC1=[N+](Cc2ccccc2Cl)CCc2cc(OC)c(OC)cc21.[Cl-] [Compound No. 54, 1-n-pentadecyl-2-(2-chlorophenyl)methyl-3,4-dihydro-6,7-dimethoxyisoquinolinium chloride] | 1
COc1cc2c(cc1OC)C(C)=[N+](Cc1c(F)cccc1F)CC2.[Cl-] [Compound No. 56, 1-methyl-2-(2,6-difluorophenyl)methyl-3,4-dihydro-6,7-dimethoxyisoquinolinium chloride] | 6
CCCCCCC1=[N+](Cc2c(F)cccc2F)CCc2cc(OC)c(OC)cc21.[Cl-] [Compound No. 58, 1-n-hexyl-2-(2,6-difluorophenyl)methyl-3,4-dihydro-6,7-dimethoxyisoquinolinium chloride] | 4
CCCCCCCCCCCC1=[N+](Cc2c(F)cccc2F)CCc2cc(OC)c(OC)cc21.[Cl-] [Compound No. 59, 1-n-undecyl-2-(2,6-difluorophenyl)methyl-3,4-dihydro-6,7-dimethoxyisoquinolinium chloride] | 1
CCCCCCCC1=[N+](Cc2c(F)cccc2F)CCc2cc(OC)c(OC)cc21.[Cl-] [Compound No. 61, 1-n-heptyl-2-(2,6-difluorophenyl)methyl-3,4-dihydro-6,7-dimethoxyisoquinolinium chloride] | 4

Structure (SMILES) | Relative Activity
COc1cc2c(cc1OC)C(c1ccc(C(C)(C)C)cc1)=[N+](Cc1c(F)cccc1F)CC2.[Cl-] [Compound No. 63, 1-(4-t-butylphenyl)-2-(2,6-difluorophenyl)methyl-3,4-dihydro-6,7-dimethoxyisoquinolinium chloride] | 6
COc1cc2c(cc1OC)C(C)=[N+](Cc1c(F)cccc1Cl)CC2.[Cl-] [Compound No. 64, 1-methyl-2-(2-chloro-6-fluorophenyl)methyl-3,4-dihydro-6,7-dimethoxyisoquinolinium chloride] | 6
COc1cc2c(cc1OC)C(C(C)C)=[N+](Cc1c(F)cccc1Cl)CC2.[Cl-] [Compound No. 65, 1-i-propyl-2-(2-chloro-6-fluorophenyl)methyl-3,4-dihydro-6,7-dimethoxyisoquinolinium chloride] | 5
CCCCCC1=[N+](Cc2c(F)cccc2Cl)CCc2cc(OC)c(OC)cc21.[Cl-] [Compound No. 66, 1-n-pentyl-2-(2-chloro-6-fluorophenyl)methyl-3,4-dihydro-6,7-dimethoxyisoquinolinium chloride] | 5
CCCCCCCC1=[N+](Cc2c(F)cccc2Cl)CCc2cc(OC)c(OC)cc21.[Cl-] [Compound No. 67, 1-n-heptyl-2-(2-chloro-6-fluorophenyl)methyl-3,4-dihydro-6,7-dimethoxyisoquinolinium chloride] | 4
CCCCCCCCCCCC1=[N+](Cc2c(F)cccc2Cl)CCc2cc(OC)c(OC)cc21.[Cl-] [Compound No. 68, 1-n-undecyl-2-(2-chloro-6-fluorophenyl)methyl-3,4-dihydro-6,7-dimethoxyisoquinolinium chloride] | 2
COc1cc2c(cc1OC)C(c1ccccc1F)=[N+](Cc1c(F)cccc1Cl)CC2.[Cl-] [Compound No. 69, 1-(2-fluorophenyl)-2-(2-chloro-6-fluorophenyl)methyl-3,4-dihydro-6,7-dimethoxyisoquinolinium chloride] | 6
COc1cc2c(cc1OC)C(c1ccc(C(C)(C)C)cc1)=[N+](Cc1c(F)cccc1Cl)CC2.[Cl-] [Compound No. 70, 1-(4-t-butylphenyl)-2-(2-chloro-6-fluorophenyl)methyl-3,4-dihydro-6,7-dimethoxyisoquinolinium chloride] | 6
COc1cc2c(cc1OC)C(C)=[N+](Cc1ccccc1[N+](=O)[O-])CC2.[Cl-] [Compound No. 71, 1-methyl-2-(2-nitrophenyl)methyl-3,4-dihydro-6,7-dimethoxyisoquinolinium chloride] | 6
COc1cc2c(cc1OC)C(C(C)C)=[N+](Cc1ccccc1[N+](=O)[O-])CC2.[Cl-] [Compound No. 72, 1-i-propyl-2-(2-nitrophenyl)methyl-3,4-dihydro-6,7-dimethoxyisoquinolinium chloride] | 6
CCCCCCCC1=[N+](Cc2ccccc2[N+](=O)[O-])CCc2cc(OC)c(OC)cc21.[Cl-] [Compound No. 73, 1-n-heptyl-2-(2-nitrophenyl)methyl-3,4-dihydro-6,7-dimethoxyisoquinolinium chloride] | 5
CCCCCCCCCCCC1=[N+](Cc2ccccc2[N+](=O)[O-])CCc2cc(OC)c(OC)cc21.[Cl-] [Compound No. 74, 1-n-undecyl-2-(2-nitrophenyl)methyl-3,4-dihydro-6,7-dimethoxyisoquinolinium chloride] | 2
COc1cc2c(cc1OC)C(c1ccc(C(C)(C)C)cc1)=[N+](Cc1ccccc1[N+](=O)[O-])CC2.[Cl-] [Compound No. 75, 1-(4-t-butylphenyl)-2-(2-nitrophenyl)methyl-3,4-dihydro-6,7-dimethoxyisoquinolinium chloride] | 6
CCCCCCCC1=[N+](Cc2ccc(O)c([N+](=O)[O-])c2)CCc2cc(OC)c(OC)cc21.[Cl-] [Compound No. 76, 1-n-heptyl-2-(4-hydroxy-3-nitrophenyl)methyl-3,4-dihydro-6,7-dimethoxyisoquinolinium chloride] | 4
CCCCCCCCCCCC1=[N+](Cc2ccc(O)c([N+](=O)[O-])c2)CCc2cc(OC)c(OC)cc21.[Cl-] [Compound No. 77, 1-n-undecyl-2-(4-hydroxy-3-nitrophenyl)methyl-3,4-dihydro-6,7-dimethoxyisoquinolinium chloride] | 2
COc1cc2c(cc1OC)C(C)=[N+](Cc1cc(Br)c(OC)c(OC)c1)CC2.[Cl-] [Compound No. 78, 1-methyl-2-(3-bromo-4,5-dimethoxy)methyl-3,4-dihydro-6,7-dimethoxyisoquinolinium chloride] | 6
